The nature of this test: Lipolysis: glycerol release from differentiated 3T3-L1 adipocytes. In kind it is cell-based. The settings on record: 2 mM, twice a day for 48 hours. How it is done:
This study aims to evaluate in vitro effect of Nelumbo nucifera (Lotus) Extract on lipolysis by evaluating glycerol release on preadipocytes. Lipolysis is the hydrolysis of triglycerides into glycerol and fatty acids. The amount of glycerol release will be proportional to both the amount of stored triglyceride and the degree of lipolysis 3T3-L1 pre-adipocytes (ATCC) were cultured in DMEM 4.5 g/L glucose (Lonza) supplemented with 10% of FBS (Lonza), 2 mM of L-Glutamine (Lonza) and 100 μg/ml of Primocin (InvivoGen). 2 days after the cells' confluence, differentiation into adipocytes was induced by adding 0.5 mM IBMX, 1 μM dexamethasone and 10 μg/ml insulin (Sigma) in the culture medium for 3 days. Afterwards, IBMX and dexamethasone were removed and only the insulin was maintained for 3 to 4 days; then, the insulin was also removed, and the cells were maintained in culture medium for another 3 days. After differentiation, cells were treated with Nelumbo nucifera (Lotus) Extract of example 1 diluted at 1/10.000 eme in culture medium, further noted as Lotus 0.01% (volume/volume) or with 2 mM caffeine positive control, twice a day for 48 hours. Then glycerol release was measured using Adipolysis Assay Kit (Cayman Chemical), according to the manufacturer's instructions.

The values below come from patent publication US10806693B2, “Method for increasing lipolysis using a composition comprising bioactive Nelumbo nucifera (lotus) extract” (ISP Investments LLC, priority 2016, dated 2020).

Each structure is given as a SMILES string.

For the compound `Cn1c(=O)c2c(ncn2C)n(C)c1=O` [Caffeine, caffeine], the “Glycerol release (% of untreated)” value is listed as 131 % of untreated.
